Read-outs that look alike come from different tables or passages of the source.
Experiments:
IRAK1 = IRAK1 (Homo sapiens (Human), UniProt P51617); experiment: IRAK1 enzymatic assay (ADP-Glo luminescence); format: biochemical
Method: In this assay, IRAK1 hydrolyses ATP and autophosphorylates. Measurement of IRAK-1 inhibition is performed in 384-well format based on luminescence assay (ADP-Glo™ Kinase Assay from Promega). Purified human recombinant IRAK1 ([…]) and serial diluted compounds in DMSO (range of concentration from 10 μM to 0.5 nM) or controls (1% DMSO) are incubated for 15 minutes at RT in assay buffer containing 50 mM Hepes pH 7.0, Fatty acid-free BSA 0.1%, Dithiothreitol (DTT) 2 mM, MgCl2 10 mM, EGTA 0.5 mM, Triton X-100 0.01%. The kinase reaction is then initiated by the addition of ATP at a concentration of 1μM. After 2 hours of incubation at RT, the reaction is stopped and the unconsumed ATP depleted by the addition of ADP-Glo™ Reagent according to supplier instructions. After 40 minutes of incubation at RT, the Kinase Detection Reagent is then added to the assay plate according to supplier instructions. After 20 minutes of incubation at RT, the luminescence signal is measured with a luminometer (PerkinElmer Envision or equivalent reader).

IRAK4 = IRAK4 (Homo sapiens (Human), UniProt Q9NWZ3); experiment: IRAK4 enzymatic assay (ADP-Glo luminescence); format: biochemical; conditions: human purified recombinant His-TEV-IRAK4 (1-460), ATP 2 μM, STK1-biotin peptide 300 nM
Method: IRAK4 is a human purified recombinant enzyme (His-TEV-IRAK4 (1-460)).
In this assay, IRAK4 hydrolyses ATP, autophosphorylates and phosphorylates a Serine/Threonine generic peptidic substrate (STK: 61ST1BLC from CisBio International). Measurement of IRAK-4 inhibition is performed in 384-well format based on a luminescence assay (ADP-Glo™ Kinase Assay from Promega). Purified human recombinant IRAK4 (0.3 μg/ml) and serial diluted compounds in DMSO (range of concentration from 10 μM to 0.5 nM) or controls (1% DMSO) are incubated for 15 minutes at RT in assay buffer containing 50 mM Hepes pH 7.0, Fatty acid-free BSA 0.1%, Dithiothreitol (DTT) 2 mM, MgCl2 10 mM, EGTA 0.5 mM, Triton X-100 0.01%, MnCl2 5 mM. The kinase reaction is then initiated by the addition of ATP (2 μM) and the peptidic substrate STK1-biotin peptide (300 nM). After 2 hours of incubation at RT, the reaction is stopped and the unconsumed ATP depleted by the addition of ADP-Glo™ Reagent according to supplier instructions. After 40 minutes of incubation at RT, the Kinase Detection Reagent is then added to the assay plate according to supplier instructions. After 20 minutes of incubation at RT, the luminescence signal is measured with a plate-reading luminometer (PerkinElmer Envision or equivalent reader).

[1] = human purified recombinant His-TEV-IRAK1 (194-712), ATP 1 μM, read-out: IRAK1 IC50

Sequence of IRAK4 (Q9NWZ3 whole entry): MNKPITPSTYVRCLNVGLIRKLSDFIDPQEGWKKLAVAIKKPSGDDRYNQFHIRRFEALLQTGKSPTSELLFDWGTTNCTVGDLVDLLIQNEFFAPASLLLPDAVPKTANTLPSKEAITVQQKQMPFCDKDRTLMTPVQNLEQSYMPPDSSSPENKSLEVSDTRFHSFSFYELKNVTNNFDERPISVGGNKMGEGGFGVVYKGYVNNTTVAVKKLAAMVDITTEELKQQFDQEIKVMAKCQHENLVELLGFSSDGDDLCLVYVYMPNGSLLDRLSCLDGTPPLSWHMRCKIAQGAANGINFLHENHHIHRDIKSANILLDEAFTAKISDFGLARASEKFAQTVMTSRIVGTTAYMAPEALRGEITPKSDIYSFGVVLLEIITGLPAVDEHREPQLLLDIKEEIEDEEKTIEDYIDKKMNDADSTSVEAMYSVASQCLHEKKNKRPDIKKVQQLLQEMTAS
Sequence of IRAK1 (P51617 194-712): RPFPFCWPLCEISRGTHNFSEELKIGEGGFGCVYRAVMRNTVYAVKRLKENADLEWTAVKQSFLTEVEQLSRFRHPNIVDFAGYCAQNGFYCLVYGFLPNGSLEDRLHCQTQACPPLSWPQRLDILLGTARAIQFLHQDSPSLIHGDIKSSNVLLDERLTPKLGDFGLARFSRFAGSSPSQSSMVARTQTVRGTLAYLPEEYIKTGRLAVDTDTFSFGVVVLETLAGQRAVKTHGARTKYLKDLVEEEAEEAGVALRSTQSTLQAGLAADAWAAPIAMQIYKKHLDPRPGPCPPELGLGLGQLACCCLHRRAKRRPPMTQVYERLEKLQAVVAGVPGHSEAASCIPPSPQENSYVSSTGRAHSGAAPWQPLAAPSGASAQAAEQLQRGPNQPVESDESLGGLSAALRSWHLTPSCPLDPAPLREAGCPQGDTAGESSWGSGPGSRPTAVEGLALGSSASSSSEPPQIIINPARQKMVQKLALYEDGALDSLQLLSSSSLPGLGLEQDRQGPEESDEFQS

Compound	IC50 (IRAK1)	IC50 (IRAK4)	IC50 (IRAK1; [1])
Cn1cc2c(n1)C(=O)NCC/C=C/CCn1cc(cn1)-c1cccc(n1)C(=O)N2 [Compound 28, (8E)-16-methyl-4,5,12,15,16,19,25-heptaazatetracyclo[19.3.1.1^2,^5.0^1^4,^1^8]hexacosa-1(24),2(26),3,8,14,17,21(25),22-octaene-13,20-dione]	100 to 1000 nM	< 100 nM	–
Cn1cc2c(n1)C(=O)NCCCCCCn1cc(cn1)-c1cccc(n1)C(=O)N2 [Compound 3, 16-methyl-4,5,12,15,16,19,25-heptaazatetracyclo[19.3.1.1^2,^5.0^1^4,^1^8]hexacosa-1(24),2(26),3,14,17,21(25),22-heptaene-13,20-dione]	100 to 1000 nM	< 100 nM	–
O=C1Nc2cn(C3CCOCC3)nc2C(=O)NCC[S+]([O-])CCCn2cc(cn2)-c2cccc1n2 (stereo not drawn) [Compound 14, 16-(oxan-4-yl)-9λ^4-thia-4,5,12,15,16,19,25-heptaazatetracyclo[19.3.1.1^2,^5.0^1^4,^1^8]hexacosa-1(24),2(26),3,14,17,21(25),22-heptaene-9,13,20-trione]	100 to 1000 nM	< 100 nM	–
15-methyl-4,5,11,14,15,18,24-heptaazatetracyclo[18.3.1.1^2,^5.0^13,^1^7]pentacosa-1(23),2(25),3,13,16,20(24),21-heptaene-12,19-dione [Compound 2]	–	100 to 1000 nM	–
9,10-dihydroxy-17-methyl-4,5,13,16,17,20,26-heptaazatetracyclo[20.3.1.1^2,^5.0^1^5,^1^9]heptacosa-1(25),2(27),3,15,18,22(26),23-heptaene-14,21-dione [Compound 36]	–	< 100 nM	–
Cn1cc2c(n1)C(=O)NCCCCn1cc(cn1)-c1cccc(n1)C(=O)N2 [Compound 4, 4-methyl-4,5,10,13,14, 17,23-heptaazatetracyclo[17.3.1.1^2,^5.0^12,^1^6]tetracosa-1(22),2(24),3,12,15,19(23),20-heptaene-11,18-dione]	1000 to 5000 nM	1000 to 5000 nM	–
O=C1Nc2cn(C3CCOCC3)nc2C(=O)NCCCCCCn2cc(cn2)-c2cccc1n2 [Compound 12, 16-(oxan-4-yl)-4,5,12,15,16,19,25-heptaazatetracyclo[19.3.1.1^2,^5.0^1^4,^1^8]hexacosa-1(24),2(26),3,14,17,21 (25),22-heptaene-13,20-dione]	100 to 1000 nM	< 100 nM	–
O=C1Nc2cn(C3CCNCC3)nc2C(=O)NCCCCCCn2cc(cn2)-c2cccc1n2 [Compound 16, 16-(piperidin-4-yl)-4,5,12,15,16,19,25-heptaazatetracyclo[19.3.1.1^2,^5.0^1^4,^1^8]hexacosa-1 (24),2(26),3,14,17,21(25),22-heptaene-13,20-dione]	100 to 1000 nM	< 100 nM	–
O=C1Nc2cn(C3CCN(C(=O)C4CC4(F)F)CC3)nc2C(=O)NCCCCCCn2cc(cn2)-c2cccc1n2 (stereo not drawn) [Compound 18, 16-[1-(2,2-difluorocyclopropanecarbonyl)piperidin-4-yl]-4,5,12,15,16,19,25-heptaazatetracyclo[19.3.1.1^2,^5.0^1^4,^1^8]hexacosa-1(24),2(26),3,14,17,21 (25),22-heptaene-13,20-dione]	100 to 1000 nM	< 100 nM	–
O=C1Nc2cn(C3CCOCC3)nc2C(=O)NCCSCCCn2cc(cn2)-c2cccc1n2 [Compound 13, 6-(oxan-4-yl)-9-thia-4,5,12,15,16,19,25-heptaazatetracyclo[19.3.1.1^2,^5.0^1^4,^1^8]hexacosa-1(24),2(26),3,14,17,21(25),22-heptaene-13,20-dione]	100 to 1000 nM	< 100 nM	–
Cn1cc2c(n1)C(=O)NC/C=C\CCCn1cc(cn1)-c1cccc(n1)C(=O)N2 [Compound 30, (9Z)-16-methyl-4,5,12,15,16,19,25-heptaazatetracyclo[19.3.1.1^2,^5.0^1^4,^1^8]hexacosa-1(24),2(26),3,9,14,17,21(25),22-octaene-13,20-dione]	100 to 1000 nM	< 100 nM	–
Cn1cc2c(n1)C(=O)NCCC/C=C/Cn1cc(cn1)-c1cccc(n1)C(=O)N2 [Compound 25, (7E)-16-methyl-4,5,12,15,16,19,25-heptaazatetracyclo[19.3.1.1^2,^5.0^1^4,^1^8]hexacosa-1(24),2(26),3,7,14,17,21(25),22-octaene-13,20-dione]	–	< 100 nM	< 100 nM
CN1CCNC(=O)c2nn(C)cc2NC(=O)c2cccc(n2)-c2cnn(c2)CC1 [Compound 10, 8,15-dimethyl-4,5,8,11,14,15,18,24-octaazatetracyclo[18.3.1.1^2,^5.0^13,^1^7]pentacosa-1(23),2(25),3,13,16,20(24),21-heptaene-12,19-dione]	1000 to 5000 nM	100 to 1000 nM	–
O=C1Nc2cn(C3CCN(C(=O)NC4CC4)CC3)nc2C(=O)NCCCCCCn2cc(cn2)-c2cccc1n2 [Compound 19, N-cyclopropyl-4-{13,20-dioxo-4,5,12,15,16,19,25-heptaazatetracyclo[19.3.1.1^2,^5.0^1^4,^1^8]hexacosa-1(24),2(26),3,14,17,21(25),22-heptaen-16-yl}piperidine-1-carboxamide]	100 to 1000 nM	< 100 nM	–
Cn1cc2c(n1)C(=O)NCCC/C=C\Cn1cc(cn1)-c1cccc(n1)C(=O)N2 [Compound 37, (7Z)-16-methyl-4,5,12,15,16,19,25-heptaazatetracyclo[19.3.1.1^2,^5.0^1^4,^1^8]hexacosa-1(24),2(26),3,7,14,17,21(25),22-octaene-13,20-dione]	100 to 1000 nM	< 100 nM	–
Cn1cc2c(n1)C(=O)NCC1CN(CCO1)CCn1cc(cn1)-c1cccc(n1)C(=O)N2 (stereo not drawn) [Compound 7, 18-methyl-11-oxa-4,5,8,14,17,18,21,27-octaazapentacyclo[21.3.1.1^2,^5.1^8,^12.0^1^6,^2^0]nonacosa-1 (26),2(29),3,16,19,23(27),24-heptaene-15,22-dione]	1000 to 5000 nM	< 100 nM	–
Cn1cc2c(n1)C(=O)NC/C=C/CCCn1cc(cn1)-c1cccc(n1)C(=O)N2 [Compound 29, (9E)-16-methyl-4,5,12,15,16,19,25-heptaazatetracyclo[19.3.1.1^2,^5.0^1^4,^1^8]hexacosa-1(24),2(26),3,9,14,17,21(25),22-octaene-13,20-dione]	100 to 1000 nM	< 100 nM	–
O=C1Nc2cn(C3CCOCC3)nc2C(=O)NCCCCCCn2cc(cn2)-c2cccc1c2 [Compound 24, 16-(oxan-4-yl)-4,5,12,15,16,19-hexaazatetracyclo[19.3.1.1^2,^5.0^1^4,^1^8]hexacosa-1(24),2(26),3,14,17,21 (25),22-heptaene-13,20-dione]	100 to 1000 nM	< 100 nM	–
Cn1cc2c(n1)C(=O)NCCCC(O)C(O)Cn1cc(cn1)-c1cccc(n1)C(=O)N2 (stereo not drawn) [Compound 32, 7,8-dihydroxy-16-methyl-4,5,12,15,16,19,25-heptaazatetracyclo[19.3.1.1^2,^5.0^1^4,^1^8]hexacosa-1(24),2(26),3,14,17,21(25),22-heptaene-13,20-dione]	100 to 1000 nM	< 100 nM	–
CN(C)CCN1CCC(n2cc3c(n2)C(=O)NCCCCCCn2cc(cn2)-c2cccc(n2)C(=O)N3)CC1 [Compound 23, 6-{1-[2-(dimethylamino)ethyl]piperidin-4-yl}-4,5,12,15,16,19,25-heptaazatetracyclo[19.3.1.1^2,^5.0^1^4,^1^8]hexacosa-1(24),2(26),3,14,17,21(25),22-heptaene-13,20-dione]	100 to 1000 nM	< 100 nM	–
CN1CCNC(=O)c2nn(C)cc2NC(=O)c2cccc(n2)-c2cnn(c2)CCOC1=O [Compound 5, 10,17-dimethyl-8-oxa-4,5,10,13,16,17,20,26-octaazatetracyclo[20.3.1.1^2,^5.0^1^5,^1^9]heptacosa-1(25),2(27),3,15,18,22(26),23-heptaene-9,14,21-trione]	–	< 100 nM	< 100 nM
17-methyl-4,5,13,16,17,20,26-heptaazatetracyclo[20.3.1.1^2,^5.0^1^5,^1^9]heptacosa-1(25),2(27),3,15,18,22(26),23-heptaene-14,21-dione [Compound 35]	–	< 100 nM	–
(9E)-17-methyl-4,5,13,16, 17,20,26-heptaazatetracyclo[20.3.1.1^2,^5.0^1^5,^1^9]heptacosa-1(25),2(27),3,9,15,18,22(26),23-octaene-14,21-dione [Compound 34]	–	< 100 nM	–
